Data from ChEMBL document CHEMBL3886598, “Pyrazolyl-pyrimidine derivatives as kinase inhibitors” (2016).

Tests used:
[1] = biological target: Tyrosine-protein kinase JAK2 (Homo sapiens, UniProt O60674); test: JAK2 Enzymatic Assay: The assay has been performed using the commercial available JAK2 kinase domain (Invitrogen, Eugene, Oreg.). […] The JAK2 kinase assay was run with a final enzyme concentration of 1 nM, in the presence of 60 uM ATP, 3 nM 33P-γ-ATP and 64 uM of substrate BioDBn*306 (Aminoacid sequence: LPLDKDYYWREPGQ⿿SEQ ID NO: 1). The peptidic substrate was purchased from American Peptide Company (Sunnyvale, Calif.). Specific JAK2, JAK1 or JAK3 peptide substrates are trans-phosphorylated by JAKs kinase in the presence of ATP traced with 33P-γ-ATP. At the end of the phosphorylation reaction, the unreacted ATP, cold and radioactive, is captured by an excess of Dowex ion exchange resin that eventually settles by gravity to the bottom of the reaction plate. The supernatant is subsequently withdrawn and transferred into a counting plate that is then evaluated by […].
Tyrosine-protein kinase JAK2, sequence (O60674 whole entry, the tested form may be a part): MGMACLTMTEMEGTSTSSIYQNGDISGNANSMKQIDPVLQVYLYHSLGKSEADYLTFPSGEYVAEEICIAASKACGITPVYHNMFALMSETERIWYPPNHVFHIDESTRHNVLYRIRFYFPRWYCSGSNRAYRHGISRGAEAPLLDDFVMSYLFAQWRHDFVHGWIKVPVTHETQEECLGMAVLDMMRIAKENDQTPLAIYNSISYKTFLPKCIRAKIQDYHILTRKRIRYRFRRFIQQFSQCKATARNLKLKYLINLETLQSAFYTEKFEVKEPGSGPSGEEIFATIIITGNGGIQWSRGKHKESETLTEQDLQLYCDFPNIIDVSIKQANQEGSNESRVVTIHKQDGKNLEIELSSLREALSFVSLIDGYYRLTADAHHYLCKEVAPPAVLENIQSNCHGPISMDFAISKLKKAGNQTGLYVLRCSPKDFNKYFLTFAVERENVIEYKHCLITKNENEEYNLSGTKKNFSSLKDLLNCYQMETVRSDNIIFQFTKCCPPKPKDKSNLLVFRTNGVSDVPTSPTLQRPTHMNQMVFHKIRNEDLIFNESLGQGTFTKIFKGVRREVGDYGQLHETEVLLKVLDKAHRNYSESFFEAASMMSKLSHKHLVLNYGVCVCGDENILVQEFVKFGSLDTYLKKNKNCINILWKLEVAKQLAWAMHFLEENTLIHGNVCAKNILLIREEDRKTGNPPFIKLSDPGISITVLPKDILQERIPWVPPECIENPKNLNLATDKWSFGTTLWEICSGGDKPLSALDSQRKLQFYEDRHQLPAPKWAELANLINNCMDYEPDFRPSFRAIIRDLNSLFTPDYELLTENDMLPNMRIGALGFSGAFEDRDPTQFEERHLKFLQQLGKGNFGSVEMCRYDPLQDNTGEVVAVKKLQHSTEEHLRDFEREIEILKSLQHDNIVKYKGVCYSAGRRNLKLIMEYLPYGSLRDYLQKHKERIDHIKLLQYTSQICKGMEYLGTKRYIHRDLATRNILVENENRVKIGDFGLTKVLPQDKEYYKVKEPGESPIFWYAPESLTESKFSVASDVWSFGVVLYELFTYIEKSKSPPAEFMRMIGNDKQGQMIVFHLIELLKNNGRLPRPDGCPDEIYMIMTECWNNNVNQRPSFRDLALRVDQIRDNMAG

[2] = biological target: T1, Tyrosine-protein kinase JAK3 (Homo sapiens, UniProt P52333); test: JAK3 Enzymatic Assay: The assay has been performed using the JAK3 kinase domain (residues 781-1124 of the 1124 amino acid long full-length sequence, accession number P52333 of UniProtKB/Swiss-Prot databse). […] The JAK3 kinase assay was run with a final enzyme concentration of 1 nM, in the presence of 22 uM ATP, 1 nM 33P-γ-ATP and 40 uM of substrate BioDBn*306 (Amino acid sequence: LPLDKDYYWREPGQ-SEQ ID NO: 1). The peptidic substrate was purchased from American Peptide Company (Sunnyvale, Calif.).
T1 sequence (P52333 whole entry): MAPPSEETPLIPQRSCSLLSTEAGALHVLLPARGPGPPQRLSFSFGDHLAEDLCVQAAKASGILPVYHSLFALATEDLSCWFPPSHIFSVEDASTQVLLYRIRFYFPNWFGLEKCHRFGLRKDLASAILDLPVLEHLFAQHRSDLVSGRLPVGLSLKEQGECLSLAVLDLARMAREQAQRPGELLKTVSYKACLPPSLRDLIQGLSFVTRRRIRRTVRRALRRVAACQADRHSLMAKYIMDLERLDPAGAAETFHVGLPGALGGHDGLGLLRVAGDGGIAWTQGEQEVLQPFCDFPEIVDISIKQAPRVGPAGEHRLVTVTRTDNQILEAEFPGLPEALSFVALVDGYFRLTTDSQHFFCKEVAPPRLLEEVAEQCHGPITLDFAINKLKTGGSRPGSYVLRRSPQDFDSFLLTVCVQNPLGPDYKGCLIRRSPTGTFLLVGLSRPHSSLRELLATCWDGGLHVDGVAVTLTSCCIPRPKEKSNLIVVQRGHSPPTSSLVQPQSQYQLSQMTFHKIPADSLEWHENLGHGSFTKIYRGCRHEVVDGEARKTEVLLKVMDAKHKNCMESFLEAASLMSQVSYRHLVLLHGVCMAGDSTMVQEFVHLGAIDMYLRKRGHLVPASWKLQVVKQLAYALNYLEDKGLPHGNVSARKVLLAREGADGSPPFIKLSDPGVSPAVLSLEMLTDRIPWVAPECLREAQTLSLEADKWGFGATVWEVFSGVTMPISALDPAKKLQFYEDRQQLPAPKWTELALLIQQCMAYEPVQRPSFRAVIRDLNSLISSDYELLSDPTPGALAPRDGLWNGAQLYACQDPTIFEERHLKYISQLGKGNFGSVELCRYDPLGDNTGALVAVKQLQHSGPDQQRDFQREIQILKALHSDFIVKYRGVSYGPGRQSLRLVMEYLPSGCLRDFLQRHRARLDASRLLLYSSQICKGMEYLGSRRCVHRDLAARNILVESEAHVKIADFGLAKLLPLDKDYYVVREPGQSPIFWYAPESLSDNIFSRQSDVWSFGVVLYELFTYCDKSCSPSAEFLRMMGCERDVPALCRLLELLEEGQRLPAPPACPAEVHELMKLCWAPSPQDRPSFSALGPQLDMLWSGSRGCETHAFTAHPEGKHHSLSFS

## CCc1ccc(Cl)cc1-n1nc(-c2ccnc(N)n2)cc1C(N)=O
[1]
  IC50: < 5 µM
[2]
  IC50: < 5 µM
